Tested on: PANC-1 (human pancreatic cancer-derived cell line)
Test: MTS assay on Panc-1 (human pancreas carcinoma cell line)
Type: cell-based
Settings: 144 h; for IC50: PANC-1, MTS method, cell survival 6 days after exposure, 4-parameter logistic fit; for inhibition at 30 µM: PANC-1, MTS, 6 days, read-out: Growth inhibition (%) 30 μM
Procedure: Experimental Example: MTS Assay on Panc-1 (Human Pancreas Carcinoma Cell Line) cell line name: PANC-1 derived from: human pancreas glandular cancer purchased from: ATCC product code: CRL-1469 proliferation medium: D-MEM+10% FBS culture environment: 37° C., 5% CO2 seeding density: 5.0×10^5 cells/25 cm^2 solvent control substance: DMSO (HYBRI-MAX®, Sigma-Aldrich Corp.) test substance: Example compound (ID-1-ID-13) A DMSO solution of the test substance was prepared by serially diluting (common ratio 2) each test substance with DMSO.
A solvent control substance sample and a test substance sample were exposed to a human pancreatic cancer-derived cell line (PANC-1), and the survival rate of the cell 6 days later was measured by the MTS method. The measurement was performed 3 times and the average thereof was adopted. The survival rate of the cell in each test substance sample was calculated by the following formula 1 with the value at exposure of the solvent control substance sample as 100% survival rate. […]
survival rate (%)=100×absorbance of each test substance sample/absorbance of solvent control substance sample formula 1 Normalized values calculated by the following formula 2 from the absorbances of each sample at 492 nm and 630 nm and the absorbances of the blank were used as the absorbances in the above-mentioned formula 1. […]
normalized value (ABS492 nm-630 nm)=(ABSsa 492 nm-ABSsa 630 nm)−(ABSbl 492 nm-ABSbl 630 nm) ABSsa 492: absorbance of each sample at wavelength 492 nm ABSsa 630: absorbance of each sample at wavelength 630 nm ABSbl 492: absorbance of blank corresponding to each sample at wavelength 492 nm ABSbl 630: absorbance of blank corresponding to each sample at wavelength 630 nm formula 2 […]
The analysis was performed by using nplr package on R (The R Foundation for Statistical Computing) and estimating the logistic regression curve (4-parameter).

Row | SMILES | IC50 [nM] | inhibition at 30 µM [%]
1 | CC(C)C[C@H]1ON(C(=O)/C=C/c2ccccn2)[C@H]2CN(C3CCN(C)CC3)C(=O)[C@H](CC(C)C)N2C1=O [ID-1, (3R, 6S, 9aS)-3,6-diisobutyl-8-(1-methylpiperidin-4-yl)-1-((E)-3-(pyridin-2-yl)acryloyl) tetrahydropyrazino[2,1-c] [1,2,4]oxadiazine-4,7(3H,6H)-dione] | 4100 | –
2 | CC(C)C[C@H]1ON(C(=O)/C=C/c2nc3ccccc3s2)[C@H]2CN(C3CCN(C)CC3)C(=O)[C@H](CC(C)C)N2C1=O [ID-2, (3R, 6S, 9aS)-1-((E)-3-(benzo[d]thiazol-2-yl)acryloyl)-3,6-diisobutyl-8-(1-methylpiperidin-4-yl) tetrahydropyrazino[2,1-c] [1,2,4]oxadiazine-4,7(3H,6H)-dione] | 270 | –
3 | CC(C)C[C@H]1ON(C(=O)/C=C/c2nc(C#N)cs2)[C@H]2CN(C3CCN(C)CC3)C(=O)[C@H](CC(C)C)N2C1=O [ID-3, 2-((E)-3-((3R, 6S, 9aS)-3,6-diisobutyl-8-(1-methylpiperidin-4-yl)-4,7-dioxohexahydropyrazino[2,1-c] [1,2,4]oxadiazin-1(6H)-yl)-3-oxoprop-1-en-1-yl)thiazole-4-carbonitrile] | 340 | –
4 | CC(C)C[C@H]1ON(C(=O)/C=C/c2nc3ccccc3s2)[C@H]2CN([C@H]3CCN(CCCCO)C3)C(=O)[C@H](CC(C)(C)C)N2C1=O [ID-5, (3R,6S,9aS)-1-((E)-3-(benzo[d]thiazol-2-yl)acryloyl)-8-((S)-1-(4-hydroxybutyl)pyrrolidin-3-yl)-3-isobutyl-6-neopentyltetrahydropyrazino[2,1-c][1,2,4]oxadiazine-4,7(3H,6H)-dione] | 180 | –
5 | CC(C)C[C@H]1ON(C(=O)/C=C/c2nc3ccccc3s2)[C@H]2CN([C@@H]3CCN(CCCCO)C3)C(=O)[C@H](CC(C)(C)C)N2C1=O [ID-6, (3R,6S,9aS)-1-((E)-3-(benzo[d]thiazol-2-yl)acryloyl)-8-((R)-1-(4-hydroxybutyl)pyrrolidin-3-yl)-3-isobutyl-6-neopentyltetrahydropyrazino[2,1-c][1,2,4]oxadiazine-4,7(3H,6H)-dione] | 130 | –
6 | CC(C)C[C@H]1ON(C(=O)/C=C/c2nc3cc(O)ccc3s2)[C@H]2CN([C@H]3CCN(CCCCO)C3)C(=O)[C@H](CC(C)(C)C)N2C1=O [ID-7, (3R,6S,9aS)-1-((E)-3-(5-hydroxybenzo[d]thiazol-2-yl)acryloyl)-8-((S)-1-(4-hydroxybutyl)pyrrolidin-3-yl)-3-isobutyl-6-neopentyltetrahydropyrazino[2,1-c][1,2,4]oxadiazine-4,7(3H,6H)-dione] | 70 | –
7 | CC(C)C[C@H]1ON(C(=O)/C=C/c2nc3cc(O)ccc3s2)[C@H]2CN(C3CN(CCCCO)C3)C(=O)[C@H](CC(C)(C)C)N2C1=O [ID-8, (3R,6S,9aS)-1-((E)-3-(5-hydroxybenzo[d]thiazol-2-yl)acryloyl)-8-(1-(4-hydroxybutyl)azetidin-3-yl)-3-isobutyl-6-neopentyltetrahydropyrazino[2,1-c][1,2,4]oxadiazine-4,7(3H,6H)-dione] | 63 | –
8 | CC(C)C[C@H]1ON(C(=O)/C=C/c2nc(C#CCCCCO)cs2)[C@H]2CN([C@H]3CCN(CCCCO)C3)C(=O)[C@H](CC(C)(C)C)N2C1=O [ID-9, (3R,6S,9aS)-8-((S)-1-(4-hydroxybutyl)pyrrolidin-3-yl)-1-((E)-3-(4-(6-hydroxyhex-1-yn-1-yl)thiazol-2-yl)acryloyl)-3-isobutyl-6-neopentyltetrahydropyrazino[2,1-c][1,2,4]oxadiazine-4,7(3H,6H)-dione] | 99 | –
9 | CC(C)C[C@H]1ON(C(=O)/C=C/c2nc(C#CCCCO)cs2)[C@H]2CN(C3CCN(C(C)C)CC3)C(=O)[C@H](CC(C)(C)C)N2C1=O [ID-10, (3R,6S,9aS)-1-((E)-3-(4-(5-hydroxypent-1-yn-1-yl)thiazol-2-yl)acryloyl)-3-isobutyl-8-(1-isopropylpiperidin-4-yl)-6-neopentyltetrahydropyrazino[2,1-c][1,2,4]oxadiazine-4,7(3H,6H)-dione] | 48 | –
10 | CC(C)C[C@H]1ON(C(=O)/C=C/c2nc(C#CCCCCO)cs2)[C@H]2CN([C@@H]3CCN(CCCCO)C3)C(=O)[C@H](CC(C)(C)C)N2C1=O [ID-11, (3R,6S,9aS)-8-((R)-1-(4-hydroxybutyl)pyrrolidin-3-yl)-1-((E)-3-(4-(6-hydroxyhex-1-yn-1-yl)thiazol-2-yl)acryloyl)-3-isobutyl-6-neopentyltetrahydropyrazino[2,1-c][1,2,4]oxadiazine-4,7(3H,6H)-dione] | 140 | –
11 | CC(C)C[C@H]1ON(C(=O)/C=C/c2nc3cc(O)ccc3s2)[C@H]2CN([C@@H]3CCN(CCCCO)C3)C(=O)[C@H](CC(C)(C)C)N2C1=O [ID-12, (3R,6S,9aS)-1-((E)-3-(5-hydroxybenzo[d]thiazol-2-yl)acryloyl)-8-((R)-1-(4-hydroxybutyl)pyrrolidin-3-yl)-3-isobutyl-6-neopentyltetrahydropyrazino[2,1-c][1,2,4]oxadiazine-4,7(3H,6H)-dione] | 60 | –
12 | CC(C)C[C@H]1ON(C(=O)/C=C/c2nc(C#CCCCCCO)cs2)[C@H]2CN([C@@H]3CCN(CCCCO)C3)C(=O)[C@H](CC(C)(C)C)N2C1=O [ID-13, (3R,6S,9aS)-8-((R)-1-(4-hydroxybutyl)pyrrolidin-3-yl)-1-((E)-3-(4-(7-hydroxyhept-1-yn-1-yl)thiazol-2-yl)acryloyl)-3-isobutyl-6-neopentyltetrahydropyrazino[2,1-c][1,2,4]oxadiazine-4,7(3H,6H)-dione] | 140 | –
13 | CC(C)C[C@H]1ON(C(=O)/C=C/c2ccccn2)[C@H]2CN(CCC(N)=O)C(=O)[C@H](CC(C)C)N2C1=O [ID-14, 3-((3R,6S,9aS)-3,6-diisobutyl-4,7-dioxo-1-((E)-3-(pyridin-2-yl)acryloyl)hexahydropyrazino[2,1-c][1,2,4]oxadiazin-8 (1H)-yl)propanamide] | 17800 | –
14 | CC(C)C[C@H]1ON(C(=O)/C=C/c2ccccn2)[C@H]2CN(C3CCN(C(=O)c4ccccc4)CC3)C(=O)[C@H](CC(C)C)N2C1=O [ID-15, (3R,6S,9aS)-8-(1-benzoylpiperidin-4-yl)-3,6-diisobutyl-1-((E)-3-(pyridin-2-yl)acryloyl)tetrahydropyrazino[2,1-c][1,2,4]oxadiazine-4,7(3H,6H)-dione] | 5800 | 99.9
15 | CC(C)C[C@H]1ON(C(=O)/C=C/c2ccccn2)[C@H]2CN(C3CCNCC3)C(=O)[C@H](CC(C)C)N2C1=O [ID-16, (3R,6S,9aS)-3,6-diisobutyl-8-(piperidin-4-yl)-1-((E)-3-(pyridin-2-yl)acryloyl)tetrahydropyrazino[2,1-c][1,2,4]oxadiazine-4,7(3H,6H)-dione] | 4700 | 100
16 | CC(C)C[C@H]1ON(C(=O)/C=C/c2nccs2)[C@H]2CN(CCC(N)=O)C(=O)[C@H](CC(C)C)N2C1=O [ID-17, 3-((3R,6S,9aS)-3,6-diisobutyl-4,7-dioxo-1-((E)-3-(thiazol-2-yl)acryloyl)hexahydropyrazino[2,1-c][1,2,4]oxadiazin-8(1H)-yl)propanamide] | 11400 | 100
17 | CNC(=O)CCN1C[C@@H]2N(C(=O)/C=C/c3ccccn3)O[C@H](CC(C)C)C(=O)N2[C@@H](CC(C)C)C1=O [ID-18, 3-((3R,6S,9aS)-3,6-diisobutyl-4,7-dioxo-1-((E)-3-(pyridin-2-yl)acryloyl)hexahydropyrazino[2,1-c][1,2,4]oxadiazin-8 (1H)-yl)—N-methylpropanamide] | 15900 | 96.4
18 | CNCCCN1C[C@H](CC(C)C)N2C(=O)[C@@H](CC(C)C)ON(C(=O)/C=C/c3ccccn3)[C@H]2C1 [ID-19, (3R,6S,9aS)-3,6-diisobutyl-8-(3-(methylamino)propyl)-1-((E)-3-(pyridin-2-yl)acryloyl)hexahydropyrazino[2,1-c][1,2,4]oxadiazin-4(3H)-one] | 10200 | 99.7
19 | CC(C)C[C@H]1ON(C(=O)/C=C/c2ccc3ccccc3n2)[C@H]2CN(CCC(N)=O)C(=O)[C@H](CC(C)C)N2C1=O [ID-20, 3-((3R,6S,9aS)-3,6-diisobutyl-4,7-dioxo-1-((E)-3-(quinolin-2-yl)acryloyl)hexahydropyrazino[2,1-c][1,2,4]oxadiazin-8 (1H)-yl)propanamide] | 2400 | 100
20 | CC(C)C[C@H]1ON(C(=O)/C=C/c2ccccn2)[C@H]2CN(CCC(=O)N3CCNCC3)C(=O)[C@H](CC(C)C)N2C1=O [ID-21, (3R,6S,9aS)-3,6-diisobutyl-8-(3-oxo-3-(piperazin-1-yl)propyl)-1-((E)-3-(pyridin-2-yl)acryloyl)tetrahydropyrazino[2,1-c][1,2,4]oxadiazine-4,7 (3H, 6H)-dione] | 19800 | 99.5

Source: patent US20230265104A1, “NOVEL HETEROCYCLIC COMPOUNDS” (PRISM BIOLAB CO., LTD., priority 2020, published 2023)
